Holding throughout (assay): growth of human tumour cells (NCI), 48 h
Assay [1] deals with HOP-92 NSCLC.
Assay [2] concerns SNB-75 CNS.
The test system of assay [3] is K-562 leukemia.
Assay [4] has as its system DMS 114 small cell lung.
The test system of assay [5] is SNB-19 CNS.
For assay [6], the system named is COLO 205 colon.
In assay [7] the test system is HCT-15 colon.
In assay [8] the test system is M19-MEL melanoma.
Assay [9] has as its system MDA-N.
Assay [10] relates to M14 melanoma.
The test system of assay [11] is CAKI-1 renal.

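Method: 48-hour compound exposure of cells in 96-well plates, five concentrations, linear interpolation of endpoints. The concentration for full growth arrest is given as TGI.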 Bounds are passed on as bounds.

With `CSCC[C@@H](NC(=O)[C@H](CC(C)C)NC(=O)C(Cc1cnc[nH]1)NC(=O)CNC(=O)[C@@H](NC(=O)[C@H](C)NC(=O)[C@H](Cc1c[nH]c2ccccc12)NC(=O)[C@H](CCC(N)=O)NC(=O)[C@@H](N)CC(N)=O)C(C)C)C(N)=O` (some centres not stated), the TGI in assay [1], in assay [2], in assay [3], in assay [4], in [5] and in assay [6] was > 100 µM each time. The TGI in [7] and in assay [8] was > 100 µM each time.
With `O=C(NCc1ccccc1)c1cc2ccccc2oc1=Nc1cccc(C(F)(F)F)c1`, the TGI in assay [1], in assay [2], in [3], in [5], in assay [9] and in assay [10] was > 100 µM in each case. For the same compound, the TGI in assay [6] was 90.2 µM; in [11], > 100 µM; in assay [7], > 100 µM.
With `O=C(/C=C/c1ccc(Cl)cc1)Oc1ccc(C=C2CCC/C(=C\c3ccc(OC(=O)/C=C/c4ccc(Cl)cc4)cc3)C2=O)cc1`, the TGI in assay [1], in assay [2], in assay [3], in assay [5], in assay [9] and in assay [10] was > 100 µM in each case. For the same compound, the TGI in [6], in [11] and in assay [7] was > 100 µM each time.
As to `C[n+]1cc2cc(O)c(O)cc2c2ccc3cc(O)c(O)cc3c21`, the TGI in [1] is 11.5 µM; in assay [2], 59.3 µM; in assay [3] it was > 37.4 µM; in assay [5] it was 16.5 µM; in [9], > 100 µM; in [10], > 100 µM. The figures for the TGI in assay [6], in assay [11] and in assay [7] were > 84.5 µM, > 37.3 µM and > 34.2 µM, respectively.
`CC1=CC2C3(C)C(C)(C(C)=CP3(=O)c3c(C(C)C)cc(C(C)C)cc3C(C)C)C1P2(=O)c1c(C(C)C)cc(C(C)C)cc1C(C)C` (configuration not stated): the TGI turned out to be 7.97 µM in [1]; 12.1 µM in assay [2]; 12.8 µM in assay [3]; 15.8 µM in [5]; 5.62 µM in [9]; 4.21 µM in assay [10]. Also, the results for the TGI in assay [6], in assay [11] and in assay [7] were 3.3 µM, 15.9 µM and 5.87 µM, respectively.
For the compound `CN1CSC(=S)N(c2cccc(C(F)(F)F)c2)C1`, the TGI in [1] is 50.5 µM; in assay [2], > 100 µM; in [3] it was 59.6 µM; in assay [5], 61 µM; in [9] it was 91.2 µM; in assay [10] it was 33.8 µM. Besides, the results for the TGI in assay [6], in assay [11] and in [7] were 37.2 µM, 74 µM and 38 µM, respectively.
For `CCOC(=O)c1c(N2CCCC2)[nH]c(=O)c(C(c2ccc(OC)cc2)c2c(O)c(C(=O)OCC)c(N3CCCC3)[nH]c2=O)c1O`, the TGI in assay [1] is 58.6 µM; in assay [2] it was 69 µM; in assay [3] it was > 100 µM; in assay [5], > 100 µM; in assay [9] it was > 100 µM; in assay [10], > 100 µM. The results for the TGI in assay [6], in [11] and in [7] were > 100 µM, 71.1 µM and > 100 µM, respectively.
Regarding `COC(=O)/C=C(\C)CC/C=C(\C)CCC1OC1(C)C` (configuration not stated), the TGI was 22.8 µM in [1]; 38.8 µM in assay [2]; 22 µM in assay [3]; > 75 µM in assay [5]; 21.9 µM in assay [9]; 22.9 µM in [10]. The TGI in [6] turned out to be 30 µM; in assay [11], 22.3 µM; in assay [7], 21.9 µM.
Consider `COc1ccc(CNc2cnc3ccc(N)cc3n2)cc1`, for which the TGI in [2] is > 100 µM; in assay [3] it was > 100 µM; in [4] it was > 100 µM; in assay [5], > 100 µM; in assay [10], > 100 µM; in assay [6], 34.6 µM. The TGI in [11], in [7] and in assay [8] was > 100 µM throughout.
For `CN(C)CCNC(=O)c1cccc2c1Nc1ccccc1S2`, the TGI in assay [1] was 8.96 µM; in [2], 21.3 µM; in [3], 36.2 µM; in [4] it was 20 µM; in assay [5], 24 µM; in assay [6] it was 25.8 µM. Besides, the TGI was 31.4 µM in [7] and 29.6 µM in [8].
As to `CC1(C)CC(=O)C2=C(C1)C(c1ccccc1Cl)C1C(=O)CC(C)(C)CC1(O)O2` (configuration not stated), the TGI in assay [1], in [2], in assay [3], in assay [5], in assay [9] and in assay [10] was > 100 µM in each case. Also, the TGI is > 31.6 µM in assay [6], > 100 µM in assay [11] and > 100 µM in assay [7].
As to `CN(C)CCN(c1ccccn1)c1ccccn1`, the TGI in assay [1], in assay [2], in assay [3], in assay [5], in assay [9] and in [10] was > 100 µM throughout. The TGI in [6], in assay [11] and in assay [7] was > 100 µM each time.
Take `Clc1cccc(-c2sc(-c3cccs3)cc2Cc2cccs2)c1`: the TGI in assay [1], in [2], in [3], in assay [5], in assay [9] and in assay [10] was > 10 µM throughout. Also, the TGI in assay [6], in assay [11] and in assay [7] was > 10 µM in each case.
`N#CNC(N)=NCc1ccccc1`: the TGI in assay [1], in assay [2], in assay [4], in assay [10], in assay [6] and in assay [7] was > 100 µM in each case. Besides, the TGI in assay [8] was > 100 µM.

(Values after PubChem BioAssay (NCI).)
